Measured values taken from patent US20040167189A1, “Materials and methods for inhibiting Wip1” (The Government of the U.S.A., as Represented by the …, priority 2002, published 2004).
Several values for one entry are separate records, joined by “and”; a condition that tells them apart may be missing. Equal entries are not always repeated. Where two headings read alike, the source gives them in different places.

T1: phosphoserine peptide substrate (LRRApSLG)
T1 chain: LRRASLG


Key:
recombinant Wip1 = recombinant Wip1 (Homo sapiens, UniProt O15297); conditions: for relative effectiveness as Wip1 inhibitor (in words): at the concentration of 0.25 μM;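 as to all read-outs here: recombinant His-tagged Wip1 dephosphorylating a phosphoserine peptide for 1 h at 30 °C, read by fluorescence quench (ex 560, em 590 nm), signal rising with dephosphorylation, DMSO-only reactions as control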
Text: Phosphatase activity of Wip1 was monitored with IQ™ Phosphatase Assay Kit (Pierce, Rockford, Ill.). […] At the end of phosphatase reaction, the labeled peptide population contains a mixture of phosphorylated and nonphosphorylated peptide species. The iron-containing compound binds specifically to the phosphorylated peptide present and its fluorescence is quenched. The observed relative fluorescence units increase in proportion to the extent of dephosphorylation of the phosphopeptide. The standard phosphatase assay was performed by incubating 0.2 μg recombinant Wip1 in the buffer, containing 20 mM MOPS, pH 7.0, 20 mM MgCl2, and 30 μM of phosphoserine peptide substrate (LRRApSLG) at 30° C. for 1 hour. The reaction was terminated by addition of 60 μl IQ™ Working Solution. Fluorescent intensity was measured on the Fluorometer at 560/590 ex/em. Compounds (2 ml) from a chemical library of potential Wip1 inhibitors dissolved in 50% DMSO were added to fmal concentration of 10, 1, 0.5, or 0.2 μM. Control reactions contained only 6% DMSO.
Wip1 activity was measured in the presence of 1990 chemical compounds, 10 μM final concentration each.

[1] = biological target: T1, phosphoserine peptide substrate …
[2] = compound at 0.25 μm, DMSO control 740
[3] = compound at 0.5 μm, DMSO control 740
[4] = compound at 1 μm, DMSO control 725
[5] = compound at 10 μm, DMSO control 1400

Row | Molecule | Wip1 Activity (recombinant Wip1; [2]) [light units @ 590 nm] | Wip1 Activity (recombinant Wip1; [3]) [light units @ 590 nm] | Wip1 Activity (recombinant Wip1; [4]) [light units @ 590 nm] | Wip1 Activity (recombinant Wip1; [5]) [light units @ 590 nm] | also measured
1 | O=[N+]([O-])c1ccc(S(=O)(=O)Cc2ccccc2)c2nonc12 [Compound A] | 745 | 725 | 250 | 0 | –
2 | O=C(O)C=Cc1ccc[c]([Sb](=[O])([OH])[OH])c1 [Compound B] | 740 | 723 | 575 | 0 | –
3 | Nc1nc(Sc2ccc([N+](=O)[O-])c3nonc23)c2nc[nH]c2n1 [Compound C] | 745 | 750 | 610 | 0 | –
4 | CN(C)CN1CSC(=S)N(CN(C)C)C1 [Compound D] | 750 | 740 | 595 | 0 | –
5 | CC(=NN=C([S-])SCc1ccccc1)c1ccccn1.[Cl-].[Cu+2] [Compound F] | 740 | 695 | 100 | 0 | –
6 | Nc1nc([S][Hg][c]2cc([N+](=O)[O-])ccc2O)c2ncn(C3OC(CO)C(O)C3O)c2n1 (centres unmarked) [Compound H] | 675 | 690 | 225 | 0 | –
7 | O=C(O)c1c(Br)c(Br)c(Br)c(Br)c1C1c2ccc(O)cc2Oc2cc(O)ccc21 [Compound I] | 625 | 710 | 250 | 0 | –
8 | O=C(O)c1cc[c]([Hg][S]c2ncnc3nc[nH]c23)cc1 [Compound K] | 630 | 680 | 300 | 0 | –
9 | CC1=C(Br)C(=O)C(C)=C(Br)C1=O [Compound L] | 375 | 220 | 60 | 0 | activity of Wip1 in the presence of compound (in words) (recombinant Wip1; 1 μM final concentration): nearly not detectable; Phosphatase Activity (Wip1) (recombinant Wip1; Compound L at 1 μM final concentration, DMSO control 500): 5 light units @ 590 nm; relative effectiveness as Wip1 inhibitor (in words) (recombinant Wip1): most effective inhibitors; decrease of the activity of PP2A (phosphatase PP2A; 1 μM final concentration): 5%; Phosphatase Activity (PP2A) (phosphatase PP2A; Compound L at 1 μM final concentration, DMSO control 760): 690 light units @ 590 nm
10 | Nc1cc[c]([Hg][S]c2nc(N)nc3c2ncn3C2OC(CO)C(O)C2O)cc1 (centres unmarked) [Compound M] | 525 | 400 | 145 | 0 | relative effectiveness as Wip1 inhibitor (in words) (recombinant Wip1): most effective inhibitors
11 | O=C1C(Cl)=C(Nc2ccc(S(=O)(=O)Nc3ccccn3)cc2)C(=O)c2ccccc21 [Compound N] | – | – | – | 0 | Wip1 Activity (recombinant Wip1): 645 light units @ 590 nm and 710 light units @ 590 nm and 550 light units @ 590 nm
12 | recombinant full-size human Wip1 enzyme with His-Tag on the NH2 terminus (protein) MAGLYSLGVSVFSDQGGRKYMEDVTQIVVEPEPTAEEKPSPRRSLSQPLPPRPSPAALPGGEVSGKGPAVAAREARDPLPDAGASPAPSRCCRRRSSVAFFAVCDGHGGREAAQFAREHLWGFIKKQKGFTSSEPAKVCAAIRKGFLACHLAMWKKLAEWPKTMTGLPSTSGTTASVVIIRGMKMYVAHVGDSGVVLGIQDDPKDDFVRAVEVTQDHKPELPKERERIEGLGGSVMNKSGVNRVVWKRPRLTHNGPVRRSTVIDQIPFLAVARALGDLWSYDFFSGEFVVSPEPDTSVHTLDPQKHKYIILGSDGLWNMIPPQDAISMCQDQEEKKYLMGEHGQSCAKMLVNRALGRWRQRMLRADNTSAIVICISPEVDNQGNFTNEDELYLNLTDSPSYNSQETCVMTPSPCSTPPVKSLEEDPWPRVNSKDHIPALVRSNAFSENFLEVSAEIARENVQGVVIPSKDPEPLEENCAKALTLRIHDSLNNSLPIGLVPTNSTNTVMDQKNLKMSTPGQMKAQEIERTPPTNFKRTLEESNSGPLMKKHRRNGLSRSSGAQPASLPTTSQRKNSVKLTMRRRLRGQKKIGNPLLHQHRKTVCVC | – | – | – | – | Phosphatase Activity (light units @ 590 nm), DMSO control (light units @ 590 nm) [1]: 500; Wip1 Activity (light units @ 590 nm), DMSO control (light units @ 590 nm) [1]: 1400 and 725 and 740
